According to publication PMC11571207, “Stereorandomized Oncocins with Preserved Ribosome Binding and Antibacterial Activity” (Journal of Medicinal Chemistry, 2024):
≈ marks a conversion by molar mass, not a printed value. Non-standard residues stand in square brackets, D forms with d. Residues, ends and D or L forms follow the SMILES beside them.

Assays:
A. baumannii ATCC19606 = experiment: microbe, parasite or virus in culture; details: for MIC A. baumannii, 12.5% MHB / MIC A. baumannii, Full MHB: A. baumannii ATCC19606, 16–20 h at 37 °C; for MIC A. baumannii, 12.5% MHB: 12.5% Müller–Hinton medium; for MIC A. baumannii, Full MHB: full Müller–Hinton medium; for MIC A. baumannii ATCC19606: supplement CSV
From the text: (§1) We tested antibacterial effects against the Gram-negative bacteria Escherichia coli, Klebsiella pneumoniae, Pseudomonas aeruginosa, and Acinetobacter baumannii and the Gram-positive methicillin-resistant Staphylococcus aureus (MRSA).
(§2) Bacterial growth assay (Figure S1), transmission electron microscopy (Figure S6), serum stability assay (Figure S7), circular dichroism spectral recording (Figures S8 and S9), antimicrobial and hemolysis activity assays (MIC and MHC), and vesicle leakage assay were carried out as described in earlier publications.[43],[44]
(§3) Minimum inhibitory concentration assay
(§4) Antimicrobial activity was assayed against P. aeruginosa PAO1, K. pneumoniae NCTC418, E. coli W3110, A. baumannii ATCC 19606, methicillin-resistant S. aureus COL (MRSA), and for selected peptides on P. aeruginosa PA14 and the polymyxin-B-resistant derivative PA14 2P4, as well as the clinical isolates ZEM-1A and ZEM9A, K. pneumoniae OXA-48, S. aureus Newman, Enterobacter cloacae and Burkholderia cenocepacia. The minimal inhibitory concentration (MIC) was determined by using broth microdilution method. A colo ny of bacteria was picked and grown in Luria-Bertani (LB) medium overnight at 37°C. For E. coli BW25113 sbmA::kan the medium was supplemented with 25 mg/L of kanamycin. The next day, the culture was then regrown in LB medium to log phase (OD600 = 0.6 to 0.8), which lasted approximately 4 h, and diluted to an OD600 of 0.022 in the desired medium. Stock solutions of 1 mg/mL of the samples were prepared in sterilized milliQ water and diluted to the beginning concentration of 64 μg/mL in 300 μL Mueller Hinton (MH)-medium. The diluted samples were added to first well of 96-well microtiter plate (TPP, untreated, Faust Laborbedarf, AG, Schaffhausen) and diluted serially by ½. Finally, 4 μL of the bacterial suspension was inoculated into the sample solutions (150 μL/well) with a final inoculation of about 5∙10^5 CFU/mL. The plates were then incubated at 37°C for 15-18h. For each assay, sterility (broth only) and growth control (broth with bacterial inoculum, without antibiotics) were checked with two columns in the plate. The next day, 15 μL of 3-(4,5-dimethylthiazol-2-yl)-2,5-diphenyltetrazolium bromide (MTT) was added to each well of the plate, such a way that MIC was defined as the lowest concentration of the peptide that inhibited visible growth of the tested

E. coli W3110 = experiment: microbe, parasite or virus in culture; details: for MIC E. coli, 12.5% MHB / MIC E. coli, Full MHB: E. coli W3110, 16–20 h at 37 °C, broth microdilution; for MIC E. coli, 12.5% MHB: 12.5% Müller–Hinton medium; for MIC E. coli, Full MHB: full Müller–Hinton medium; for MIC E. coli W3110: supplement CSV
From the text: as §1, §2, §3, §4

K. pneumoniae NCTC 418 = experiment: microbe, parasite or virus in culture; details: for MIC K. pneumoniae, 12.5% MHB / MIC K. pneumoniae, Full MHB: K. pneumoniae NCTC 418, 16–20 h at 37 °C; for MIC K. pneumoniae, 12.5% MHB: 12.5% Müller–Hinton medium; for MIC K. pneumoniae, Full MHB: full Müller–Hinton medium; for MIC K. pneumoniae NCTC418: supplement CSV
From the text: as §1, §2, §3, §4

P. aeruginosa PAO1 = experiment: microbe, parasite or virus in culture; details: for MIC P. aeruginosa, 12.5% MHB / MIC P. aeruginosa, Full MHB: P. aeruginosa PAO1, 16–20 h at 37 °C; for MIC P. aeruginosa, 12.5% MHB: 12.5% Müller–Hinton medium; for MIC P. aeruginosa, Full MHB: full Müller–Hinton medium; for MIC P. aeruginosa PAO1: supplement CSV
From the text: as §1, §2, §3, §4

S. aureus COL (MRSA) = experiment: microbe, parasite or virus in culture; details: for MIC S. aureus, 12.5% MHB / MIC S. aureus, Full MHB: S. aureus COL (MRSA), 16–20 h at 37 °C; for MIC S. aureus, 12.5% MHB: 12.5% Müller–Hinton medium; for MIC S. aureus, Full MHB: full Müller–Hinton medium; for MIC S. aureus COL (MRSA): supplement CSV
From the text: as §1, §2, §3, §4

human red blood cells = experiment: Hemolysis assay, minimum hemolytic concentration; details: for Haemolysis on hRBC, MHC: 2.5% human red blood cells (final) in 10 mM phosphate, 150 mM NaCl, pH 7.4, 25 °C, 4 h, visual inspection; for MHC human red blood cells: supplement CSV

Row | SMILES | MIC A. baumannii, 12.5% MHB (A. baumannii ATCC19606) [µg/mL] | MIC A. baumannii, Full MHB (A. baumannii ATCC19606) [µg/mL] | MIC A. baumannii ATCC19606 (A. baumannii ATCC19606; 12.5% MH pH 7.4) [µg/mL] | MIC A. baumannii ATCC19606 (A. baumannii ATCC19606; full MH pH 7.4) [µg/mL] | MIC E. coli, 12.5% MHB (E. coli W3110) [µg/mL] | MIC E. coli, Full MHB (E. coli W3110) [µg/mL] | MIC E. coli W3110 (E. coli W3110; 12.5% MH pH 7.4) [µg/mL] | MIC E. coli W3110 (E. coli W3110; full MH pH 7.4) [µg/mL] | MIC K. pneumoniae, 12.5% MHB (K. pneumoniae NCTC 418) [µg/mL] | MIC K. pneumoniae, Full MHB (K. pneumoniae NCTC 418) [µg/mL] | MIC K. pneumoniae NCTC418 (K. pneumoniae NCTC 418; 12.5% MH pH 7.4) [µg/mL] | MIC K. pneumoniae NCTC418 (K. pneumoniae NCTC 418; full MH pH 7.4) [µg/mL] | MIC P. aeruginosa, 12.5% MHB (P. aeruginosa PAO1) [µg/mL] | MIC P. aeruginosa, Full MHB (P. aeruginosa PAO1) [µg/mL] | MIC P. aeruginosa PAO1 (P. aeruginosa PAO1; 12.5% MH pH 7.4) [µg/mL] | MIC P. aeruginosa PAO1 (P. aeruginosa PAO1; full MH pH 7.4) [µg/mL] | MIC S. aureus, 12.5% MHB (S. aureus COL (MRSA)) | MIC S. aureus, Full MHB (S. aureus COL (MRSA)) | MIC S. aureus COL (MRSA) (S. aureus COL (MRSA); 12.5% MH pH 7.4) [µg/mL] | MIC S. aureus COL (MRSA) (S. aureus COL (MRSA); full MH pH 7.4) [µg/mL] | further results
1 | CC[C@@H](C)[C@@H](NC(=O)[C@@H](CCCNC(=N)N)NC(=O)[C@@H](CCCNC(=N)N)NC(=O)[C@H]1CCCN1C(=O)[C@H]1CCCN1C(=O)[C@H](CCCNC(=N)N)NC(=O)[C@@H]1CCCN1C(=O)[C@H](CCCNC(=N)N)NC(=O)[C@@H]1CCCN1C(=O)[C@H](CC(C)C)NC(=O)[C@H](Cc1ccc(O)cc1)NC(=O)[C@@H]1CCCN1C(=O)[C@@H]1CCCN1C(=O)[C@H](CCCCN)NC(=O)[C@H](CC(=O)O)NC(=O)[C@@H](N)C(C)C)C(=O)N[C@H](Cc1ccc(O)cc1)C(=O)N[C@H](CC(N)=O)C(=O)N[C@H](CCCNC(=N)N)C(N)=O [D8Cterm-Onc] (H-VDKPPYLPRPR[dP][dP][dR][dR][dI][dY][dN][dR]-NH2) | 8 (≈ 3.35 µM) | 64 (≈ 26.8 µM) | 8 (≈ 3.35 µM) | 64 (≈ 26.8 µM) | 1 (≈ 0.418 µM) | 16 (≈ 6.69 µM) | 1 (≈ 0.418 µM) | 16 (≈ 6.69 µM) | 2 (≈ 0.837 µM) | 4 (≈ 1.67 µM) | 2 (≈ 0.837 µM) | 4 (≈ 1.67 µM) | 4 (≈ 1.67 µM) | > 64 | 4 (≈ 1.67 µM) | >64 | >64 / 64 μg/mL | >64 / 64 μg/mL | 64 (≈ 26.8 µM) | >64 | Haemolysis on hRBC, MHC (human red blood cells): >1000 µg/mL; MHC human red blood cells (human red blood cells): >1000 µg/mL
2 | CC[C@@H](C)[C@@H](NC(=O)[C@@H](CCCNC(=N)N)NC(=O)[C@@H](CCCNC(=N)N)NC(=O)[C@H]1CCCN1C(=O)[C@H]1CCCN1C(=O)[C@@H](CCCNC(=N)N)NC(=O)[C@@H]1CCCN1C(=O)[C@H](CCCNC(=N)N)NC(=O)[C@@H]1CCCN1C(=O)[C@H](CC(C)C)NC(=O)[C@H](Cc1ccc(O)cc1)NC(=O)[C@@H]1CCCN1C(=O)[C@@H]1CCCN1C(=O)[C@H](CCCCN)NC(=O)[C@H](CC(=O)O)NC(=O)[C@@H](N)C(C)C)C(=O)N[C@H](Cc1ccc(O)cc1)C(=O)N[C@H](CC(N)=O)C(=O)N[C@H](CCCNC(=N)N)C(N)=O [D9Cterm-Onc] (H-VDKPPYLPRP[dR][dP][dP][dR][dR][dI][dY][dN][dR]-NH2) | 4 (≈ 1.67 µM) | 16 (≈ 6.69 µM) | 4 (≈ 1.67 µM) | 16 (≈ 6.69 µM) | 2 (≈ 0.837 µM) | 4 (≈ 1.67 µM) | 2 (≈ 0.837 µM) | 4 (≈ 1.67 µM) | 2 (≈ 0.837 µM) | 4 (≈ 1.67 µM) | 2 (≈ 0.837 µM) | 4 (≈ 1.67 µM) | 4 (≈ 1.67 µM) | 64 (≈ 26.8 µM) | 4 (≈ 1.67 µM) | 64 (≈ 26.8 µM) | >64 / >64 μg/mL | >64 / >64 μg/mL | >64 | >64 | Haemolysis on hRBC, MHC (human red blood cells): >1000 µg/mL; MHC human red blood cells (human red blood cells): >1000 µg/mL
3 | CC[C@H](C)[C@H](NC(=O)[C@H](CCCNC(=N)N)NC(=O)[C@H](CCCNC(=N)N)NC(=O)[C@@H]1CCCN1C(=O)[C@@H]1CCCN1C(=O)[C@H](CCCNC(=N)N)NC(=O)[C@@H]1CCCN1C(=O)[C@H](CCCNC(=N)N)NC(=O)[C@@H]1CCCN1C(=O)[C@H](CC(C)C)NC(=O)[C@H](Cc1ccc(O)cc1)NC(=O)[C@@H]1CCCN1C(=O)[C@H]1CCCN1C(=O)[C@H](CCCCN)NC(=O)[C@H](CC(=O)O)NC(=O)[C@@H](N)C(C)C)C(=O)N[C@@H](Cc1ccc(O)cc1)C(=O)N[C@@H](CC(N)=O)C(=O)N[C@@H](CCCNC(=N)N)C(N)=O [DP4-Onc] (H-VDK[dP]PYLPRPRPPRRIYNR-NH2) | 8 (≈ 3.35 µM) | 64 (≈ 26.8 µM) | 8 (≈ 3.35 µM) | 64 (≈ 26.8 µM) | 4 (≈ 1.67 µM) | 16 (≈ 6.69 µM) | 4 (≈ 1.67 µM) | 16 (≈ 6.69 µM) | 4 (≈ 1.67 µM) | 32 (≈ 13.4 µM) | 4 (≈ 1.67 µM) | 32 (≈ 13.4 µM) | > 16 | > 64 | >16 | >64 | >64 / 64 μg/mL | >64 / 64 μg/mL | 64 (≈ 26.8 µM) | >64 | Haemolysis on hRBC, MHC (human red blood cells): >1000 µg/mL; MHC human red blood cells (human red blood cells): >1000 µg/mL
4 | CC[C@H](C)[C@H](NC(=O)[C@H](CCCNC(=N)N)NC(=O)[C@H](CCCNC(=N)N)NC(=O)[C@@H]1CCCN1C(=O)[C@@H]1CCCN1C(=O)[C@H](CCCNC(=N)N)NC(=O)[C@@H]1CCCN1C(=O)[C@H](CCCNC(=N)N)NC(=O)[C@@H]1CCCN1C(=O)[C@H](CC(C)C)NC(=O)[C@H](Cc1ccc(O)cc1)NC(=O)[C@H]1CCCN1C(=O)[C@@H]1CCCN1C(=O)[C@H](CCCCN)NC(=O)[C@H](CC(=O)O)NC(=O)[C@@H](N)C(C)C)C(=O)N[C@@H](Cc1ccc(O)cc1)C(=O)N[C@@H](CC(N)=O)C(=O)N[C@@H](CCCNC(=N)N)C(N)=O [DP5-Onc] (H-VDKP[dP]YLPRPRPPRRIYNR-NH2) | 16 (≈ 6.69 µM) | > 64 | 16 (≈ 6.69 µM) | >64 | 4 (≈ 1.67 µM) | 32 (≈ 13.4 µM) | 4 (≈ 1.67 µM) | 32 (≈ 13.4 µM) | > 16 | > 64 | >16 | >64 | > 16 | > 64 | >16 | >64 | >64 / 64 μg/mL | >64 / 64 μg/mL | 64 (≈ 26.8 µM) | >64 | Haemolysis on hRBC, MHC (human red blood cells): >1000 µg/mL; MHC human red blood cells (human red blood cells): >1000 µg/mL
